Literature values in patent US12256762B2, “Sweetener composition and methods of making it” (eBIO Nutritional Sciences LLC, priority 2017, dated 2025).

Conditions: published partition coefficients

| Partition Coefficient (log P) | Compound |
| --- | --- |
| 6.59 | CC/C=C\C/C=C\C/C=C\CCCCCCCC(=O)O [Alpha-Linolenic C18:3] |
| 7.06 | CCCCC/C=C\C/C=C\CCCCCCCC(=O)O [Linoleic C18:2] |
| 7.68 | CCCCCCCC/C=C\CCCCCCCC(=O)O [Oleic C18:1] |
| 7.23 | CCCCCCCCCCCCCCCC(=O)O [Palmitic C16:0] |
| 8.02 | CCCCCCCCCCCCCCCCCC(=O)O [Stearic C18:0] |
| 3.18 | C=C1C[C@@]23CC[C@H]4[C@@](C)(CCC[C@@]4(C)C(=O)O)[C@@H]2CC[C@]1(O)C3 [Steviol, reference compound] |

| Compound | Partition Coefficient (log P) |
| --- | --- |
| Cucurbitacin [reference compound] | 3.19 |
